# Patent US5480969A, “Antagonists of LHRH” (The Administrators of the Tulane Educational Fund, priority 1992, dated 1996)
# Where “and” joins values, the source holds several entries; their conditions need not be identical. Equal entries are not always repeated. Where two headings read alike, the source gives them in different places. Starred links: 1 amine or outer side, 2 acyl side, 3 side chain; linkers in the order of their positions; H or OH if unused. Non-standard residues stand in square brackets, D forms with d. Residues, ends and D or L forms follow the SMILES beside them. *: point of attachment. dAla(cis-4-NHCOPyz-cHex) = N[C@H](C[C@H]1CC[C@@H](NC(=O)c2cnccn2)CC1)C(=O)O; X2 = O=C(N[C@H]1CC[C@@H](C[C@H](N[*:1])C(=O)[*:2])CC1)c1cnccn1; d(hArg(Et2)) = CCN=C(NCC)NCCCC[C@@H](N)C(=O)O; X1 = O=C([C@@H](Cc1cnc2ccccc2c1)N[*:1])[*:2]; Ala(2-pyrazinyl) = N[C@@H](Cc1cnccn1)C(=O)O; hArg(Et2) = CCN=C(NCC)NCCCC[C@H](N)C(=O)O; dPhe(4-Cl) = N[C@H](Cc1ccc(Cl)cc1)C(=O)O; X3 = O=C([C@@H](Cc1cnccn1)N[*:1])[*:2]; d2Nal = N[C@H](Cc1ccc2ccccc2c1)C(=O)O; Lys(iPr) = CC(C)NCCCC[C@H](N)C(=O)O; d3Pal = N[C@H](Cc1cccnc1)C(=O)O; Cit = NC(=O)NCCC[C@H](N)C(=O)O; Picolinoyl = O=C(c1ccccn1)*; Abu = CC[C@H](N)C(=O)O
# Key:
# rat mast cells [1] = assay: In vitro histamine release in rat mast cells; type: cell-based
# Procedure: (§1) AOA in rats was determined as reported [Humphries et al.]. The wheal area/10 μg of analog was calculated as described [Ljungqvist et al. 1987]. The histamine release was assayed in rat mast cells as reported [Hook et al., Karten et al. 1987]. […] The biological data are in Table III.
# (§2) The AOA was determined in rats as reported [Humphries et al.]. […] The data from the determinations of AOA and ED50 are in Table IV.
# (§3) The AOA was determined in rats, as reported (13).
# [2] = Wheal area per 10 μg of analog; type: in vivo
# Procedure: as §1
# rat mast cells [3] = details: cited from earlier work; for Histamine release ED50: Table V
# rats [4] = details: cited from earlier work; for AOA %/μg 0.25: 0.25 μg; for dose giving AOA of 100% (AOA100): background, literature antagonists
# rats [5] = assay: Antiovulatory activity (AOA) in rats; type: in vivo, rat; details: Table IV / Example 2
# Procedure: as §1, §2, §3
# The very large number of bioassays which are required for a very large number of samples necessitate a minimal number of animals for the initial bioassays. In these initial bioassays, relatively small differences in potencies, expressed as percent AOA, may be "semi-quantitative," but even such small initial differences may reveal valid trends of potency for structural interpretation and new designs.
# Bioassays are repeated as many times as required for quantitative data. […] The initial bioassay of Antide showing 63% at 0.125 μg and 89% at 0.25 μg was on the first sample of […]. The following three bioassays were on a resynthesized sample. However, both samples fulfilled all criteria for purity.
# gonadotropin secretion = details: overectomized monkeys; single or multiple doses; cited from earlier work
# testosterone secretion = details: male monkeys; single dose; cited from earlier work
# [6] = Table III parent analogs from literature; cited from earlier work
compound,measurement,setting,value
CC(=O)N[C@H](Cc1ccc2ccccc2c1)C(=O)N[C@H](Cc1ccc(Cl)cc1)C(=O)N[C@H](Cc1cccnc1)C(=O)N[C@@H](CO)C(=O)N[C@@H](CCCCNC(=O)c1ccccn1)C(=O)N[C@H](CCCCNC(=O)[C@H](N)CO)C(=O)N[C@@H](CC(C)C)C(=O)N[C@@H](CCCCNC(C)C)C(=O)N1CCC[C@H]1C(=O)N[C@H](C)C(N)=O (Ac-[d2Nal][dPhe(4-Cl)][d3Pal]SK(Picolinoyl)[dK](dS)L[Lys(iPr)]P[dA]-NH2),ED50 for hist. release,rat mast cells [1],18 µg/mL
CC(=O)N[C@H](Cc1ccc2ccccc2c1)C(=O)N[C@H](Cc1ccc(Cl)cc1)C(=O)N[C@H](Cc1cccnc1)C(=O)N[C@@H](CO)C(=O)N[C@@H](C[C@H]1CC[C@@H](NC(=O)c2cnccn2)CC1)C(=O)N[C@H](Cc1cnccn1)C(=O)N[C@@H](CC(C)C)C(=O)N[C@@H](CCCCNC(C)C)C(=O)N1CCC[C@H]1C(=O)N[C@H](C)C(N)=O (Ac-[d2Nal][dPhe(4-Cl)][d3Pal]S[X2][X3]L[Lys(iPr)]P[dA]-NH2),ED50 for hist. release,rat mast cells [1],88 ± 6.4 µg/mL
"CC(=O)N[C@H](Cc1cnc2ccccc2c1)C(=O)N[C@H](Cc1ccc(Cl)cc1)C(=O)N[C@H](Cc1cccnc1)C(=O)N[C@@H](CO)C(=O)N[C@@H](CCCNC(N)=O)C(=O)N[C@H](CCCCNC(=O)c1ccccn1)C(=O)N[C@@H](CC(C)C)C(=O)N[C@@H](CCCNC(=N)N)C(=O)N1CCC[C@H]1C(=O)N[C@H](C)C(N)=O [Analog 6 (Table VI), [Cit^5]-Argtide] (Ac-[X1][dPhe(4-Cl)][d3Pal]S[Cit][dK](Picolinoyl)LRP[dA]-NH2)",ED50 histamine release,rat mast cells [1],94 µg/mL
"CC(=O)N[C@H](Cc1ccc2ccccc2c1)C(=O)N[C@H](Cc1ccc(Cl)cc1)C(=O)N[C@H](Cc1cccnc1)C(=O)N[C@@H](CO)C(=O)N[C@@H](CCCCNC(=O)c1ccccn1)C(=O)N[C@H](CCCCNC(=O)[C@H](N)CO)C(=O)N[C@@H](CC(C)C)C(=O)N[C@@H](CCCCNC(C)C)C(=O)N1CCC[C@H]1C(=O)N[C@H](C)C(N)=O [Analog 7 (Table III), [N-Ac-D-Nal^1,D-pClPhe^2,D-3-Pal^3,PicLys^5,D-(DSer)Lys.sup .6,ILys^8,D-Ala^10]-LHRH] (Ac-[d2Nal][dPhe(4-Cl)][d3Pal]SK(Picolinoyl)[dK](dS)L[Lys(iPr)]P[dA]-NH2)",Wheal area,"[2]; Table III / Example 1, listed as 7",103.9 ± 5.2 mm^2 /10 μg and 103.9 mm^2 /10 μg
"CC(=O)N[C@H](Cc1cnc2ccccc2c1)C(=O)N[C@H](Cc1ccc(Cl)cc1)C(=O)N[C@H](Cc1cccnc1)C(=O)N[C@@H](CO)C(=O)N[C@@H](C[C@H]1CC[C@@H](NC(=O)c2cnccn2)CC1)C(=O)N[C@H](CCCCNC(=O)c1ccccn1)C(=O)N[C@@H](CC(C)C)C(=O)N[C@@H](CCCCNC(C)C)C(=O)N1CCC[C@H]1C(=O)N[C@H](C)C(N)=O [Analog 11 (Table III), [N-Ac-D-3-Qal^1, D-pClPhe^2, D-3-Pal^3, c-PzACAla^5, D-PicLys^6, ILys^8, D-Ala^10] LHRH] (Ac-[X1][dPhe(4-Cl)][d3Pal]S[X2][dK](Picolinoyl)L[Lys(iPr)]P[dA]-NH2)",ED50 for hist. release,rat mast cells [1],171 ± 17 µg/mL
"CCN=C(NCC)NCCCC[C@H](NC(=O)[C@H](CC(C)C)NC(=O)[C@@H](CCCCNC(=NCC)NCC)NC(=O)[C@H](Cc1ccc(O)cc1)NC(=O)[C@H](CO)NC(=O)[C@@H](Cc1cccnc1)NC(=O)[C@@H](Cc1ccc(Cl)cc1)NC(=O)[C@@H](Cc1ccc2ccccc2c1)NC(C)=O)C(=O)N1CCC[C@H]1C(=O)N[C@H](C)C(N)=O [RS-26306, [N-Ac-D-2-Nal^1, D-pClPhe^2, D-3-Pal^3, D-hArg(Et2)^6, hArg(Et)2^8, D-Ala^10] LHRH] (Ac-[d2Nal][dPhe(4-Cl)][d3Pal]SY[d(hArg(Et2))]L[hArg(Et2)]P[dA]-NH2)",Histamine release ED50,rat mast cells [3],13 µg/mL
CC(=O)N[C@H](Cc1ccc2ccccc2c1)C(=O)N[C@H](Cc1ccc(Cl)cc1)C(=O)N[C@H](Cc1cccnc1)C(=O)N[C@@H](CO)C(=O)N[C@@H](Cc1cnccn1)C(=O)N[C@H](C[C@H]1CC[C@@H](NC(=O)c2cnccn2)CC1)C(=O)N[C@@H](CC(C)C)C(=O)N[C@@H](CCCCNC(C)C)C(=O)N1CCC[C@H]1C(=O)N[C@H](C)C(N)=O [compound 18] (Ac-[d2Nal][dPhe(4-Cl)][d3Pal]S[Ala(2-pyrazinyl)][dAla(cis-4-NHCOPyz-cHex)]L[Lys(iPr)]P[dA]-NH2),Wheal area,[2]; Table III / Example 1,101.6 ± 2.2 mm^2 /10 μg
same,ED50 for hist. release,"rat mast cells [1]; concentration releasing 50% of total releasable histamine, Table III / Example 1",28 ± 4.7 µg/mL
CC[C@H](NC(=O)[C@@H](CCCCNC(=O)c1ccccn1)NC(=O)[C@H](CCCCNC(=O)c1ccccn1)NC(=O)[C@H](CO)NC(=O)[C@@H](Cc1cccnc1)NC(=O)[C@@H](Cc1ccc(Cl)cc1)NC(=O)[C@@H](Cc1cnc2ccccc2c1)NC(C)=O)C(=O)N[C@@H](CCCCNC(C)C)C(=O)N1CCC[C@H]1C(=O)N[C@H](C)C(N)=O [compound 20] (Ac-[X1][dPhe(4-Cl)][d3Pal]SK(Picolinoyl)[dK](Picolinoyl)[Abu][Lys(iPr)]P[dA]-NH2),Wheal area,[2]; Table III / Example 1,103.9 ± 3.7 mm^2 /10 μg
CC(=O)N[C@H](Cc1ccc2ccccc2c1)C(=O)N[C@H](Cc1ccc(Cl)cc1)C(=O)N[C@H](Cc1cccnc1)C(=O)N[C@@H](CO)C(=O)N[C@@H](CCCCNC(=O)c1ccccn1)C(=O)NC1CCN(C(CC(C)C)C(=O)N[C@@H](CCCCNC(C)C)C(=O)N2CCC[C@H]2C(=O)N[C@H](C)C(N)=O)C1=O (stereo partly shown) [compound 21],Wheal area,[2]; Table III / Example 1,99.5 ± 4.5 mm^2 /10 μg
CC(=O)N[C@H](Cc1cnc2ccccc2c1)C(=O)N[C@H](Cc1ccc(Cl)cc1)C(=O)N[C@H](Cc1cccnc1)C(=O)N[C@@H](CO)C(=O)N[C@@H](CCCCNC(=O)c1ccccn1)C(=O)NC1CCN(C(CC(C)C)C(=O)N[C@@H](CCCCNC(C)C)C(=O)N2CCC[C@H]2C(=O)N[C@H](C)C(N)=O)C1=O (stereo partly shown) [compound 22],Wheal area,[2]; Table III / Example 1,89.5 ± 5.5 mm^2 /10 μg
"N-Ac-D-3-Qal, D-pClPhe, D-3-Pal, Ser, c-PzACAla, D-PicLys, Leu, Arg, Pro, D-AlaNH2 [Argtide]",Histamine release ED50,rat mast cells [3],31 µg/mL
same,ED50 histamine release,"rat mast cells [3]; Table VI / Example 3 text, from Janecka et al.",31 µg/mL
same,"column 0.125 (AOA, head not given)","rats [4]; Table V comparison of leading antagonists, column 0.125",63
same,AOA %/μg 0.25,"rats [4]; rats, Table VI / Example 3 text, from Janecka et al.",88%
same,% AOA/μg dosage 0.125,rats [5]; 0.125 μg,63%
same,% AOA/μg dosage 0.25,rats [5]; 0.25 μg,89%
same,ED50 histamine release,rat mast cells [1],30.8 ± 0.59 µg/mL
"[D-Phe^2, Pro^3, DTrp^6 ] LHRH",dose giving AOA of 100% (AOA100),rats [4],750 μg/rat
"[N-Ac-D-2-Nal^1 ; D-pClPhe^2, D-Trp^3, D-Arg^6, D-Ala^10 ] LHRH",dose giving AOA of 100% (AOA100),rats [4],ca. 0.5 μg/rat
"[N-Ac-D-2-Nal^1, D-pClPhe^2, D-3-Pal^3, Arg^5, D-Glu(AA)^6, D-Ala^10 ] LHRH [Nal-Glu]","column 1.5 (AOA, head not given)","rats [4]; Table V, column 1.5",100
"[N-Ac-D-2-Nal^1, D-pClPhe^2, D-3-Pal^3, D-Arg^6, Trp^7, D-Ala^10 ] LHRH",dose giving AOA of 100% (AOA100),rats [4],ca. 0.5 μg/rat
"[N-Ac-D-2-Nal^1, D-pClPhe^2, D-3-Pal^3, NicLys^5, D-NicLys^6, Ilys^8, D-Ala^10 ] LHRH [Antide]",ED50 for hist. release,rat mast cells [3]; Table III parent analogs from literature,300 µg/mL
same,Histamine release ED50,rat mast cells [3],> 300 µg/mL
same,ED50 for histamine release,rat mast cells [3]; background,300 µg/mL
same,histamine release (in words),rat mast cells [3]; background,negligible
same,inhibition of gonadotropin secretion,gonadotropin secretion,Prolonged duration of inhibition
same,"column 1.0 (AOA, head not given)","rats [4]; Table V, column 1.0",100
same,dose giving AOA of 100% (AOA100),rats [4],1 μg/rat
same,AOA %/μg 0.25,"rats [4]; rats, Table III parent analogs from literature",inactive
same,AOA %/μg 0.5,"rats [4]; rats, 0.5 μg, Table III parent analogs from literature",36%
same,suppression of testosterone secretion,testosterone secretion,long-term suppression
same,Wheal area,[6],132.7 mm^2 /10 μg
"[N-Ac-D-2-Nal^1, DpClPhe^2, D-Trp^3, D-Cit^6, D-Ala^10 ] LHRH",dose giving AOA of 100% (AOA100),rats [4],3 μg/rat
